Reference: patent US11479556B1, “Bifunctional compounds for degrading BTK via ubiquitin proteosome pathway” (NURIX THERAPEUTICS, INC., priority 2018, dated 2022)

target: T1, BTK (Homo sapiens, UniProt Q06187); assay: Cellular BTK HTRF assay (BTK degradation) in TMD8 cells; format: cell-based; settings: four hours incubation, Total-BTK HTRF relative to DMSO-treated cells
T1 construct: endogenous in cells; host or cells: TMD8 cells
Summary of the method: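 TMD8 cells were treated with compounds (final DMSO <0.200) for four hours at 37° C, 5% CO2, then lysed for 30 minutes. Total BTK was measured by two-antibody HTRF, taking the 665/620 nm ratio with background subtracted and expressed relative to DMSO-treated cells. DC50 came from four-parameter nonlinear regression.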

T1 sequence (Q06187 whole entry): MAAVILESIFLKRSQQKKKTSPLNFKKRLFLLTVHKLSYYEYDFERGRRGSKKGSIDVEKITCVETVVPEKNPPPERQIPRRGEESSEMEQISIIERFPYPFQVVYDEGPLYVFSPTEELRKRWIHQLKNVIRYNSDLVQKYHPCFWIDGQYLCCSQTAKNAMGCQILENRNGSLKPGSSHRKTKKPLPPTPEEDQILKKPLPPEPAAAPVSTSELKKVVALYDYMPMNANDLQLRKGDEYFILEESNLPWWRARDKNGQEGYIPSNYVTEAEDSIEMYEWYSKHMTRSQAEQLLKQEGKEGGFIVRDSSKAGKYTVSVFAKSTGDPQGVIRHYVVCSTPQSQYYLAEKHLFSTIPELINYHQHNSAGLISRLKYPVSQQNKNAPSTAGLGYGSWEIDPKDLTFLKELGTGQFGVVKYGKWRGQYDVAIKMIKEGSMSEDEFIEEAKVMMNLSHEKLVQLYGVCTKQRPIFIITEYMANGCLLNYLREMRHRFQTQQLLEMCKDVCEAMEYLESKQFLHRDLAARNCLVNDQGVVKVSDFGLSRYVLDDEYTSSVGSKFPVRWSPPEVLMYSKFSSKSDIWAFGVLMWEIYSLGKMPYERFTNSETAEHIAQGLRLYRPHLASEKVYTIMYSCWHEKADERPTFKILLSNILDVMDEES

SMILES	DC50
NC(=O)c1ncc(N2CCC(F)(F)C(CO)C2)nc1Nc1ccc(C2CCN(C[C@H]3CCN(c4ccc5c(c4)C(=O)N(C4CCC(=O)NC4=O)C5=O)C3)CC2)cc1 (some centres unmarked) [Compound 175]	< 5 nM
NC(=O)c1ncc(N2CCCCC2)nc1Nc1ccc(N2CCN(C(=O)CCOCCCc3cccc4c3CN(C3CCC(=O)NC3=O)C4=O)CC2)cc1 (centres unmarked) [Compound 67]	> 15 nM
NC(=O)c1ncc(N2CCC3(COC3)C2)nc1Nc1ccc(C2CCN(C[C@H]3CCN(c4ccc5c(c4)C(=O)N(C4CCC(=O)NC4=O)C5=O)C3)CC2)cc1 (some centres unmarked) [Compound 176]	< 5 nM
NC(=O)c1ncc(N2CCCCC2)nc1Nc1ccc(C2CCN(CC3CCN(c4ccc(CC5CCC(=O)NC5=O)cn4)CC3)CC2)cc1 (centres unmarked) [Compound 185]	> 15 nM
NC(=O)c1ncc(-n2ccc(C(F)(F)F)n2)nc1Nc1ccc(C2CCN(CC3CCN(c4ccc5c(=O)n(C6CCC(=O)NC6=O)ccc5c4)CC3)CC2)cc1 (centres unmarked) [Compound 127]	> 15 nM
CN1CCN([C@@H]2CCCN(c3cnc(C(N)=O)c(Nc4ccc(C5CCN(CC6CCN(c7ccc(OC8CCC(=O)NC8=O)cn7)CC6)CC5)cc4)n3)C2)C1=O (some centres unmarked) [Compound 165]	5 to 15 nM
NC(=O)c1ncc(N2CCC[C@H](N3CCCC3=O)C2)nc1Nc1ccc(C2CCN(CC3CCN(c4ccc5c(=O)n(C6CCC(=O)NC6=O)ccc5c4)CC3)CC2)cc1 (some centres unmarked) [Compound 144]	< 5 nM
NC(=O)c1ncc(N2CCC[C@H](N3CCCC3=O)C2)nc1Nc1ccc(C2CCN(CC3CCN(c4ccc5c(c4)CCN(C4CCC(=O)NC4=O)C5=O)CC3)CC2)cc1 (some centres unmarked) [Compound 122]	< 5 nM
CN1CCN([C@@H]2CCCN(c3cnc(C(N)=O)c(Nc4ccc(C5(C)CCN(C(=O)CN6CCN(CCCc7cccc8c7C(=O)N(C7CCC(=O)NC7=O)C8=O)CC6)CC5)cc4)n3)C2)C1=O (some centres unmarked) [Compound 22]	5 to 15 nM
Cc1ncsc1-c1ccc([C@H](C)NC(=O)[C@@H]2C[C@@H](O)CN2C(=O)[C@@H](NC(=O)CCCCCC(=O)N2CCC(c3ccc(Nc4nc(N5CCC[C@@H](N6CCN(C)C6=O)C5)cnc4C(N)=O)cc3)CC2)C(C)(C)C)cc1 [Compound 189]	> 15 nM
NC(=O)c1ncc(-c2nccs2)nc1Nc1ccc(N2CCC3(CC2)CCN(c2ccc4c(c2)C(=O)N(C2CCC(=O)NC2=O)C4=O)CC3)cc1 (centres unmarked) [Compound 151]	> 15 nM
Cn1cc(Nc2nc(N3CCC[C@@H](N4CCC5(CN(CC6CCN(c7ccc8c(=O)n(C9CCC(=O)NC9=O)ccc8c7)CC6)C5)C4=O)C3)cnc2C(N)=O)cn1 (some centres unmarked) [Compound 145]	< 5 nM
NC(=O)c1ncc(N2CCC[C@H](N3CCCC3=O)C2)nc1Nc1ccc(C2CN(CC3CCN(c4ccc5c(=O)n(C6CCC(=O)NC6=O)ccc5c4)CC3)C2)cc1 (some centres unmarked) [Compound 139]	< 5 nM
CN1CCN([C@@H]2CCCN(c3cnc(C(N)=O)c(Nc4ccc(C5(C)CCN(C(=O)CN6CCN(CCCc7cccc8c7CN(C7CCC(=O)NC7=O)C8=O)CC6)CC5)cc4)n3)C2)C1=O (some centres unmarked) [Compound 20]	< 5 nM
CN1CCN([C@@H]2CCCN(c3cnc(C(N)=O)c(Nc4ccc(C(=O)NCCOCCOCCOCCCc5cccc6c5CN(C5CCC(=O)NC5=O)C6=O)cc4)n3)C2)C1=O (some centres unmarked) [Compound 2]	> 15 nM
CN1CCN([C@@H]2CCCN(c3cnc(C(N)=O)c(Nc4ccc(C5(C)CCN(C(=O)CCOCCOCCOCCNc6cccc7c6C(=O)N(C6CCC(=O)NC6=O)C7=O)CC5)cc4)n3)C2)C1=O (some centres unmarked) [Compound 27]	5 to 15 nM
NC(=O)c1ncc(N2CCCCC2)nc1Nc1ccc(C2CCN(CC3CCN(c4ccc(NC5CCC(=O)NC5=O)cn4)CC3)CC2)cc1 (centres unmarked) [Compound 167]	> 15 nM
NC(=O)c1ncc(-n2ccc(C(F)(F)F)n2)nc1Nc1ccc(C2CCN(C[C@H]3CCN(c4ccc5c(c4)C(=O)N(C4CCC(=O)NC4=O)C5=O)C3)CC2)cc1 (some centres unmarked) [Compound 128]	> 15 nM
NC(=O)c1ncc(N2CCC(CO)CC2)nc1Nc1ccc(C2CCN(C[C@@H]3CCN(c4ccc5c(c4)C(=O)N(C4CCC(=O)NC4=O)C5=O)C3)CC2)cc1 (some centres unmarked) [Compound 160]	< 5 nM
CN1CCN([C@@H]2CCCN(c3cnc(C(N)=O)c(Nc4ccc(C5(C)CCN(CCCCc6cccc7c6CN(C6CCC(=O)NC6=O)C7=O)CC5)cc4)n3)C2)C1=O (some centres unmarked) [Compound 21]	5 to 15 nM
CN1CCN([C@@H]2CCCN(c3cnc(C(N)=O)c(Nc4ccc(C5(C)CCN(C(=O)CCCc6nnc(Nc7cccc8c7CN(C7CCC(=O)NC7=O)C8=O)o6)CC5)cc4)n3)C2)C1=O (some centres unmarked) [Compound 7]	> 15 nM
CN1CCN([C@H]2CCCN(c3cnc(C(N)=O)c(Nc4ccc(N5CCN(CCCCc6cccc7c6CN(C6CCC(=O)NC6=O)C7=O)CC5)nc4)n3)C2)C1=O (some centres unmarked) [Compound 110]	< 5 nM
Cc1ncsc1-c1ccc(CNC(=O)[C@@H]2C[C@@H](O)CN2C(=O)[C@@H](NC(=O)C2(F)CC2)C(C)(C)C)c(OCCCCCCCC(=O)N2CCC(c3ccc(Nc4nc(N5CCC[C@@H](N6CCN(C)C6=O)C5)cnc4C(N)=O)cc3)CC2)c1 [Compound 186]	> 15 nM
CN1CCN([C@@H]2CCCN(c3cnc(C(N)=O)c(Nc4ccc(C5CCN(C(=O)CCOCCOCCOCCNc6cccc7c6C(=O)N(C6CCC(=O)NC6=O)C7=O)CC5)cc4)n3)C2)C1=O (some centres unmarked) [Compound 24]	5 to 15 nM
CN1CCN([C@@H]2CCCN(c3cnc(C(N)=O)c(Nc4ccc(C5CCN(CC6CCN(c7ncc(C(=O)NC8CCC(=O)NC8=O)o7)CC6)CC5)cc4)n3)C2)C1=O (some centres unmarked) [Compound 192]	< 5 nM
Cn1c(N2CCC(CN3CC(c4ccc(Nc5nc(N6CCC[C@H](N7CCCC7=O)C6)cnc5C(N)=O)cc4)C3)CC2)nn(C2CCC(=O)NC2=O)c1=O (some centres unmarked) [Compound 141]	< 5 nM

Other lines, results leading:

DC50	SMILES
< 5 nM	CN1CCN([C@@H]2CCCN(c3cnc(C(N)=O)c(Nc4ccc(C5(C)CCN(C(=O)CCCN6CCN(c7ccc8c(c7)C(=O)N(C7CCC(=O)NC7=O)C8=O)CC6)CC5)cc4)n3)C2)C1=O (some centres unmarked) [Compound 11]
> 15 nM	CN1CCN([C@H]2CCCN(c3cnc(C(N)=O)c(Nc4ccc(N5CC6CN(c7ccc8c(c7)C(=O)N(C7CCC(=O)NC7=O)C8=O)CC6C5)cc4)n3)C2)C1=O (some centres unmarked) [Compound 79]
< 5 nM	CN1CCN([C@@H]2CCCN(c3cnc(C(N)=O)c(Nc4ccc(C5CN(CC6CCN(c7ccc(-c8nn(C9CCC(=O)NC9=O)c(=O)n8C)cc7)CC6)C5)cc4)n3)C2)C1=O (some centres unmarked) [Compound 119]
> 15 nM	CN1CCN([C@H]2CCCN(c3cnc(C(N)=O)c(Nc4ccc(N5CCC6(CC5)CN(c5cccc7c5C(=O)N(C5CCC(=O)NC5=O)C7=O)C6)cc4)n3)C2)C1=O (some centres unmarked) [Compound 97]
< 5 nM	CN1CCN([C@@H]2CCCN(c3cnc(C(N)=O)c(Nc4ccc(C5CCN(C[C@H]6CCN(c7ccc8c(=O)n(C9CCC(=O)NC9=O)ccc8c7)C6)CC5)cc4)n3)C2)C1=O (some centres unmarked) [Compound 115]
< 5 nM	CN1CCN([C@H]2CCCN(c3cnc(C(N)=O)c(Nc4ccc(C5CCN(CC6CN(c7ccc(-c8nn(C9CCC(=O)NC9=O)c(=O)n8C)cc7)C6)CC5)cc4)n3)C2)C1=O (some centres unmarked) [Compound 136]
< 5 nM	NC(=O)c1ncc(N2CCC2)nc1Nc1ccc(C2CCN(C[C@H]3CCN(c4ccc5c(c4)C(=O)N(C4CCC(=O)NC4=O)C5=O)C3)CC2)cc1 (some centres unmarked) [Compound 162]
< 5 nM	NC(=O)c1ncc(N2CCC[C@H](N3CCCC3=O)C2)nc1Nc1ccc(C2CN(C[C@@H]3CCN(c4ccc5c(c4)C(=O)N(C4CCC(=O)NC4=O)C5=O)C3)C2)cc1 (some centres unmarked) [Compound 140]
5 to 15 nM	CN1CCN([C@@H]2CCCN(c3cnc(C(N)=O)c(Nc4ccc(N5CCC6CCN(Cc7ccc8c(c7)C(=O)N(N7CCC(=O)NC7=O)C8=O)CC6C5)cc4)n3)C2)C1=O (some centres unmarked) [Compound 104]
> 15 nM	CN1CCN([C@@H]2CCCN(c3cnc(C(N)=O)c(Nc4ccc(N5CCC6CCN(c7cccc8c7C(=O)N(N7CCC(=O)NC7=O)C8=O)CC6C5)cc4)n3)C2)C1=O (some centres unmarked) [Compound 105]
< 5 nM	CN1CCN([C@H]2CCCN(c3cnc(C(N)=O)c(Nc4ccc(N5CCN(CC#Cc6ccc7c(c6)C(=O)N(C6CCC(=O)NC6=O)C7)CC5)cc4)n3)C2)C1=O (some centres unmarked) [Compound 98]
< 5 nM	CN1CCN([C@H]2CCCN(c3cnc(C(N)=O)c(Nc4ccc(C5CCN(C[C@H]6CCCN6c6ccc7c(c6)C(=O)N(C6CCC(=O)NC6=O)C7=O)CC5)cc4)n3)C2)C1=O (some centres unmarked) [Compound 87]
5 to 15 nM	CN1CCN([C@H]2CCCN(c3cnc(C(N)=O)c(Nc4ccc(N5CCC6(CCCN(Cc7ccc8c(c7)C(=O)N(N7CCC(=O)NC7=O)C8=O)C6)CC5)cc4)n3)C2)C1=O [Compound 108]
< 5 nM	CN1CCN([C@@H]2CCCN(c3cnc(C(N)=O)c(Nc4ccc(N5CCN(CC6CN(c7ccc8c(c7)C(=O)N(C7CCC(=O)NC7=O)C8=O)C6)CC5)cc4)n3)C2)C1=O (some centres unmarked) [Compound 82]
< 5 nM	CN1CCN([C@H]2CCCN(c3cnc(C(N)=O)c(Nc4ccc(C5(C)CCN([C@H]6C[C@H](Nc7cccc8c7C(=O)N(C7CCC(=O)NC7=O)C8=O)C6)CC5)cc4)n3)C2)C1=O (some centres unmarked) [Compound 103]
< 5 nM	CN1CCN([C@@H]2CCCN(c3cnc(C(N)=O)c(Nc4ccc(C5CN(CC6CN(c7ccc8c(c7)C(=O)N(C7CCC(=O)NC7=O)C8=O)C6)C5)cc4)n3)C2)C1=O (some centres unmarked) [Compound 85]
5 to 15 nM	CN1CCN([C@@H]2CCCN(c3cnc(C(N)=O)c(Nc4ccc(C5(C)CCN(c6ccc7c(c6)C(=O)N(C6CCC(=O)NC6=O)C7=O)CC5)cc4)n3)C2)C1=O (some centres unmarked) [Compound 58]
< 5 nM	CN1CCN([C@@H]2CCCN(c3cnc(C(N)=O)c(Nc4ccc(C5CCN(CCC6CN(c7ccc8c(c7)C(=O)N(C7CCC(=O)NC7=O)C8=O)C6)CC5)cc4)n3)C2)C1=O (some centres unmarked) [Compound 45]
< 5 nM	CN1CCN([C@H]2CCCN(c3cnc(C(N)=O)c(Nc4ccc(N5CCC6(CC5)CCN(c5ccc7c(c5)C(=O)N(C5CCC(=O)NC5=O)C7=O)C6)cc4)n3)C2)C1=O (some centres unmarked) [Compound 109]
< 5 nM	CN1CCN(C2CCCN(c3cnc(C(N)=O)c(Nc4ccc(C5CCN(CC6CCN(c7ccc8c(c7)CN(C7CCC(=O)NC7=O)C8=O)C6)CC5)cc4)n3)C2)C1=O (centres unmarked) [Compound 152]
< 5 nM	CN1CCN([C@@H]2CCCN(c3cnc(C(N)=O)c(Nc4ccc(C5CCN(C[C@H]6CC[C@H](Nc7cccc8c7C(=O)N(C7CCC(=O)NC7=O)C8=O)CC6)CC5)cc4)n3)C2)C1=O (some centres unmarked) [Compound 154]
